Measurements as given in US12371454B2, “Cyclic peptide compound having Kras inhibitory action” (priority 2019, dated 2025).
Starred links: 1 amine or outer side, 2 acyl side, 3 side chain; linkers in the order of their positions; H or OH if unused. Positions of bridges follow the written chain, without caps; N, C: chain ends. Non-standard residues stand in square brackets, D forms with d. Residues, ends and D or L forms follow the SMILES beside them. *: point of attachment. hPhe(3-Cl-4-CF3) = N[C@@H](CCc1ccc(C(F)(F)F)c(Cl)c1)C(=O)O; Pro(trans-4-Ph) = O=C(O)[C@@H]1C[C@@H](c2ccccc2)CN1; X52 = CN([C@@H](Cc1ccc(C#N)nc1)C(=O)[*:2])[*:1]; NMePhe(4-Br) = CN[C@@H](Cc1ccc(Br)cc1)C(=O)O; NMePhe(4-Me) = CN[C@@H](Cc1ccc(C)cc1)C(=O)O; NMedβ3hAla = C[C@H](CC(=O)[*:2])N(C)[*:1]; NMeAla(cPent) = CN[C@@H](CC1CCCC1)C(=O)O; NMeGly(cPent) = CN[C@H](C(=O)O)C1CCCC1; NMeCha = CN[C@@H](CC1CCCCC1)C(=O)O; NMeChg = CN[C@H](C(=O)O)C1CCCCC1; NMeD = CN[C@@H](CC(=O)O)C(=O)O; NMeL = CN[C@@H](CC(C)C)C(=O)O; Oxazolidin(3-yl) = C1CN(*)CO1; NEtAla = CCN[C@@H](C)C(=O)O; NMeV = CN[C@H](C(=O)O)C(C)C; Trifluoroethyl = FC(F)(F)C*; d(β3hA) = C[C@@H](N)CC(=O)O; NMeS = CN[C@@H](CO)C(=O)O; Morpholide = C1CN(*)CCO1; NMeA = CN[C@@H](C)C(=O)O; Piperidide = C1CCN(*)CC1; Pyrrolidide = C1CCN(*)C1; Ac5c = NC1(C(=O)O)CCCC1; Aze = O=C(O)[C@@H]1CCN1; Ac4c = NC1(C(=O)O)CCC1; Sar = CNCC(=O)O; Propyl = CCC*

Experiments:
[1] = system: Human pancreatic cancer cell line AsPC-1; experiment: Measurement of AsPC-1 cell growth inhibition (AsPC-1 CGI); format: cell-based; conditions: 96 h
Method in brief: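 AsPC-1 cells in 15% FBS RPMI-1640 were exposed to test compound for 96 hours at 37° C, with CellTiter-Glo as endpoint.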

[2] = molecular target: T1, Kras and SOS1 (biotin-tagged human Kras loaded with GDP, His-tagged human SOS1) (Homo sapiens, UniProt P01116, G12D); experiment: Protein-protein interaction inhibition between Kras and SOS1 (KrasGl2D-SOS PPI) using AlphaScreen; format: binding; conditions: AlphaScreen; biotin-tagged human Kras loaded with GDP, His-tagged human SOS1; read-out: KRAS G12D-SOS PPI IC50
T1 construct: made in house; host or cells: E. coli (stated for Kras only)
T1 sequence (P01116 1-188 isoform P01116-2 G12D): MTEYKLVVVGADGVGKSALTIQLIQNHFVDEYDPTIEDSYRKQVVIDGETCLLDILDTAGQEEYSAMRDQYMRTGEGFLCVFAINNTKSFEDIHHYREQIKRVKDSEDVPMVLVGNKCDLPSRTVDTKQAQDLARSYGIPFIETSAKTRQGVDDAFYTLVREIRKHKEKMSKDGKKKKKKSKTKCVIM
Method in brief: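 Donor beads (nickel) hold His-SOS1; acceptor beads (streptavidin) hold biotin-Kras bound to GDP. Signal measured at 520-620 nm following 680 nm excitation.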

Row | Structure (SMILES) | IC50 [1] [µM] | IC50 [2] [µM]
1 | CC[C@H](C)[C@@H]1NC(=O)[C@H](C)N(C)C(=O)C[C@@H](C(=O)N2CCOCC2)N(C)C(=O)[C@H](C2CCCCC2)N(C)C(=O)C2(CCCC2)NC(=O)[C@@H]2CCCN2C(=O)[C@H](CCc2ccc(C(F)(F)F)c(Cl)c2)NC(=O)CN(C)C(=O)[C@H](CC2CCCCC2)N(C)C(=O)CN(C)C(=O)CN(C)C1=O [Compound 1847] ([NMeA]I[Sar][Sar][NMeCha][Sar][hPhe(3-Cl-4-CF3)]P[Ac5c][NMeChg][NMeD]-Morpholide; lactam N-11) | 0.1 to 0.5 | 0.00063
2 | CC[C@H](C)[C@@H]1NC(=O)[C@H](CC(C)C)N(C)C(=O)C[C@@H](C(=O)N2CCCC2)N(C)C(=O)[C@H](C(C)C)N(C)C(=O)C2(CCCC2)NC(=O)[C@@H]2CCCN2C(=O)[C@H](CCc2ccc(C(F)(F)F)c(Cl)c2)NC(=O)CN(C)C(=O)[C@H](CC2CCCC2)N(C)C(=O)CN(C)C(=O)CN(C)C1=O [Compound 1699] ([NMeL]I[Sar][Sar][NMeAla(cPent)][Sar][hPhe(3-Cl-4-CF3)]P[Ac5c][NMeV][NMeD]-Pyrrolidide; lactam N-11) | 0.1 to 0.5 | 0.0011
3 | CC[C@H](C)[C@@H]1NC(=O)[C@H](CC(C)C)N(C)C(=O)C[C@@H](C)N(C)C(=O)[C@H](C(C)C)N(C)C(=O)C2(CCCC2)NC(=O)[C@@H]2CCCN2C(=O)[C@H](CCc2ccc(C(F)(F)F)c(Cl)c2)NC(=O)CN(C)C(=O)[C@H](Cc2ccc(Br)cc2)N(C)C(=O)CN(C)C(=O)CN(C)C1=O [Compound 1590] (cyclo([Ac5c][NMeV][NMedβ3hAla][NMeL]I[Sar][Sar][NMePhe(4-Br)][Sar][hPhe(3-Cl-4-CF3)]P)) | 0.05 to 0.1 | 0.0032
4 | CCCOC[C@H]1C(=O)N2CC[C@H]2C(=O)N(C)[C@@H](CC2CCCCC2)C(=O)N(C)CC(=O)N[C@@H](CCc2ccc(C(F)(F)F)c(Cl)c2)C(=O)N2CCC[C@H]2C(=O)NC2(CCCC2)C(=O)N(C)[C@@H](C(C)C)C(=O)N(C)[C@H](C(=O)N2CCCCC2)CC(=O)N(C)[C@@H](CC(C)C)C(=O)N[C@@H]([C@@H](C)CC)C(=O)N1C [Compound 809] ([NMeL]I[NMeS](Propyl)[Aze][NMeCha][Sar][hPhe(3-Cl-4-CF3)]P[Ac5c][NMeV][NMeD]-Piperidide; lactam N-11) | 0.1 to 0.5 | 0.047
5 | CC[C@H](C)[C@@H]1NC(=O)[C@H](COCC(F)(F)F)N(C)C(=O)C[C@@H](C(=O)N2CCCCC2)N(C)C(=O)[C@H](C2CCCCC2)N(C)C(=O)C2(CCCC2)NC(=O)[C@@H]2CCCN2C(=O)[C@H](CCc2ccc(C(F)(F)F)c(Cl)c2)NC(=O)CN(C)C(=O)[C@H](CC2CCCCC2)N(C)C(=O)CN(C)C(=O)CN(C)C1=O [Compound 518] ([NMeS](Trifluoroethyl)I[Sar][Sar][NMeCha][Sar][hPhe(3-Cl-4-CF3)]P[Ac5c][NMeChg][NMeD]-Piperidide; lactam N-11) | 0.05 to 0.1 | 0.00067
6 | CC[C@H](C)[C@@H]1NC(=O)[C@H](C)N(CC)C(=O)C[C@@H](C)N(C)C(=O)[C@H](C(C)C)N(C)C(=O)C2(CCCC2)NC(=O)[C@@H]2CCCN2C(=O)[C@H](CCc2ccc(C(F)(F)F)c(Cl)c2)NC(=O)CN(C)C(=O)[C@H](CC2CCCCC2)N(C)C(=O)CN(C)C(=O)CN(C)C1=O [Compound 264] (cyclo([Ac5c][NMeV][NMedβ3hAla][NEtAla]I[Sar][Sar][NMeCha][Sar][hPhe(3-Cl-4-CF3)]P)) | 0.1 to 0.5 | 0.0045
7 | CC[C@H](C)[C@@H]1NC(=O)[C@H](CC(C)C)N(C)C(=O)C[C@@H](C(=O)N2CCOC2)N(C)C(=O)[C@H](C(C)C)N(C)C(=O)C2(CCCC2)NC(=O)[C@@H]2CCCN2C(=O)[C@H](CCc2ccc(C(F)(F)F)c(Cl)c2)NC(=O)CN(C)C(=O)[C@H](CC2CCCCC2)N(C)C(=O)[C@@H]2CCN2C(=O)[C@H](C)N(C)C1=O [Compound 1329] ([NMeL]I[NMeA][Aze][NMeCha][Sar][hPhe(3-Cl-4-CF3)]P[Ac5c][NMeV][NMeD]-{Oxazolidin(3-yl)}; lactam N-11) | 0.1 to 0.5 | 0.0017
8 | CC[C@H](C)[C@@H]1NC(=O)[C@H](CC(C)C)N(C)C(=O)C[C@@H](C(=O)N2CCCCC2)N(C)C(=O)[C@H](C2CCCCC2)N(C)C(=O)C2(CCCC2)NC(=O)[C@H](Cc2ccc(C#N)nc2)N(C)C(=O)[C@H](CCc2ccc(C(F)(F)F)c(Cl)c2)NC(=O)CN(C)C(=O)[C@H](CC2CCCCC2)N(C)C(=O)CN(C)C(=O)CN(C)C1=O [Compound 2169] ([NMeL]I[Sar][Sar][NMeCha][Sar][hPhe(3-Cl-4-CF3)][X52][Ac5c][NMeChg][NMeD]-Piperidide; lactam N-11) | > 0.5 | 0.0061
9 | CC(C)C[C@@H]1NC(=O)[C@H](CC(C)C)N(C)C(=O)C[C@@H](C(=O)N2CCCCC2)N(C)C(=O)[C@H](C2CCCCC2)N(C)C(=O)C2(CCCC2)NC(=O)[C@@H]2CCCN2C(=O)[C@H](CCc2ccc(C(F)(F)F)c(Cl)c2)NC(=O)CN(C)C(=O)[C@H](CC2CCCCC2)N(C)C(=O)CN(C)C(=O)CN(C)C1=O [Compound 1650] ([NMeL]L[Sar][Sar][NMeCha][Sar][hPhe(3-Cl-4-CF3)]P[Ac5c][NMeChg][NMeD]-Piperidide; lactam N-11) | 0.1 to 0.5 | 0.0026
10 | CC[C@H](C)[C@@H]1NC(=O)[C@H](CC(C)C)N(C)C(=O)C[C@@H](C(=O)N2CCCCC2)N(C)C(=O)[C@H](C2CCCCC2)N(C)C(=O)C2(CCCC2)NC(=O)[C@@H]2C[C@@H](c3ccccc3)CN2C(=O)[C@H](CCc2ccc(C(F)(F)F)c(Cl)c2)NC(=O)CN(C)C(=O)[C@H](CC2CCCCC2)N(C)C(=O)[C@@H]2CCN2C(=O)CN(C)C1=O [Compound 147] ([NMeL]I[Sar][Aze][NMeCha][Sar][hPhe(3-Cl-4-CF3)][Pro(trans-4-Ph)][Ac5c][NMeChg][NMeD]-Piperidide; lactam N-11) | 0.1 to 0.5 | 0.0067
11 | CC[C@H](C)[C@@H]1NC(=O)[C@H](CC(C)C)N(C)C(=O)C[C@@H](C(=O)N2CCCC2)N(C)C(=O)[C@H](C2CCCCC2)N(C)C(=O)C2(CCCC2)NC(=O)[C@@H]2CCCN2C(=O)[C@H](CCc2ccc(C(F)(F)F)c(Cl)c2)NC(=O)CN(C)C(=O)[C@H](CC2CCCCC2)N(C)C(=O)[C@@H]2CCN2C(=O)[C@H](C)N(C)C1=O [Compound 1726] ([NMeL]I[NMeA][Aze][NMeCha][Sar][hPhe(3-Cl-4-CF3)]P[Ac5c][NMeChg][NMeD]-Pyrrolidide; lactam N-11) | 0.02 to 0.05 | 0.00068
12 | CC[C@H](C)[C@@H]1NC(=O)[C@H](CC(C)C)N(C)C(=O)C[C@@H](C)NC(=O)[C@H](C2CCCC2)N(C)C(=O)C2(CCC2)NC(=O)[C@@H]2CCCN2C(=O)[C@H](CCc2ccc(C(F)(F)F)c(Cl)c2)NC(=O)CN(C)C(=O)[C@H](Cc2ccc(C)cc2)N(C)C(=O)CN(C)C(=O)CN(C)C1=O [Compound 1498] (cyclo([Ac4c][NMeGly(cPent)][d(β3hA)][NMeL]I[Sar][Sar][NMePhe(4-Me)][Sar][hPhe(3-Cl-4-CF3)]P)) | 0.1 to 0.5 | 0.0017
13 | CC[C@H](C)[C@@H]1NC(=O)[C@H](CC(C)C)N(C)C(=O)C[C@@H](C)N(C)C(=O)[C@H](C2CCCC2)N(C)C(=O)C2(CCCC2)NC(=O)[C@@H]2CCCN2C(=O)[C@H](CCc2ccc(C(F)(F)F)c(Cl)c2)NC(=O)CN(C)C(=O)[C@H](Cc2ccc(C)cc2)N(C)C(=O)CN(C)C(=O)CN(C)C1=O [Compound 1694] (cyclo([Ac5c][NMeGly(cPent)][NMedβ3hAla][NMeL]I[Sar][Sar][NMePhe(4-Me)][Sar][hPhe(3-Cl-4-CF3)]P)) | 0.02 to 0.05 | 0.00055
